Our source for the IC50 and EC50 values is patent US20260364080A1, “PYRAZOLO-PYRIMIDINONE COMPOUNDS FOR USE IN METHODS OF INHIBITING WEE1 A KINASE” (Acrivon Therapeutics, Inc., priority 2023, published 2026).

In assay [1] the target is T1, recombinant human Wee1A kinase (Homo sapiens, UniProt P30291).
T1 construct: full length Wee1 kinase was expressed by baculovirus in insect cells; purchased Invitrogen PV3817; host or cells: insect cells (baculovirus)
Put plainly: Wee1A kinase binding assay (LanthaScreen Eu time-resolved FRET). The method, boiled down: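 Full-length, baculovirus-expressed GST-tagged Wee1A (5 nM) was mixed with 2 nM Eu-anti-GST antibody, 30 nM kinase tracer 178 and compound (1% DMSO). Buffer was 50 mM HEPES pH 7.5, 10 mM MgCl2, 1 mM EGTA, 0.01% Brij-35, incubated 60 min at room temperature. TR-FRET 665/615 nm emission ratios from duplicates were curve-fitted.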
On the technique in general: TR-FRET usually uses a lanthanide donor and a delayed reading to cut background.

Assay [2] deals with T2, Wee1A kinase (CDK1 Tyr15 phosphorylation in ACHN renal cell carcinoma cells) (Homo sapiens, UniProt P30291).
T2 construct: pCDK1 Tyr15 immunofluorescence read-out
T2 sequence (P30291 whole entry): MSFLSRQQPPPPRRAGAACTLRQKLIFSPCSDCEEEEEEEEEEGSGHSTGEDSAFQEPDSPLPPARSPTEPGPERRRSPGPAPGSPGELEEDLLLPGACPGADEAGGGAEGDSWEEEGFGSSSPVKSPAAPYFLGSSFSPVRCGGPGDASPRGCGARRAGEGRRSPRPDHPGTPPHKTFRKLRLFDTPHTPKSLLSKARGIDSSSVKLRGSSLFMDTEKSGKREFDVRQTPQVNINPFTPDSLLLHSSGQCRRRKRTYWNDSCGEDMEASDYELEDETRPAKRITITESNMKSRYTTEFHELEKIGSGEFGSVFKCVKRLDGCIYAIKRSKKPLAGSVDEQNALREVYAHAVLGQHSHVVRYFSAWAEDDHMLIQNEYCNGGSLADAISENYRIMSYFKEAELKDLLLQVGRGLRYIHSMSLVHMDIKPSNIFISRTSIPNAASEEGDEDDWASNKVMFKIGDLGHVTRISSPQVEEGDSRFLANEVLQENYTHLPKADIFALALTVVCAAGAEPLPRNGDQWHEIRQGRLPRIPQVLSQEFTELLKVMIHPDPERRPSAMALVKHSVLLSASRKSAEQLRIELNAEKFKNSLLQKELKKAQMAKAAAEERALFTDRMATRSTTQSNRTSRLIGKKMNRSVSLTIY
The experiment in a line: High-content imaging of pCdk1 Y15, Wee1A kinase target engagement in ACHN cells. The assay is classed as cell-based. The method, boiled down: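 ACHN cells exposed to compound for 4 h over 7–5,000 nM or 0.3–200 nM, then fixed and immunostained for pCDK1 Y15 with DAPI nuclear counterstain. The percentage of pCdk1 Y15 nucleus-positive cells relative to DMSO control was imaged per well; EC50 from dose-response curves.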

Assay [3] concerns the target T3, Myt1 kinase (recombinant PMYT-1) (Homo sapiens, UniProt Q99640).
T3 construct: full length PMYT-1 was expressed by baculovirus in insect cells; purchased Invitrogen A30984; host or cells: insect cells (baculovirus)
T3 sequence (Q99640 1-499): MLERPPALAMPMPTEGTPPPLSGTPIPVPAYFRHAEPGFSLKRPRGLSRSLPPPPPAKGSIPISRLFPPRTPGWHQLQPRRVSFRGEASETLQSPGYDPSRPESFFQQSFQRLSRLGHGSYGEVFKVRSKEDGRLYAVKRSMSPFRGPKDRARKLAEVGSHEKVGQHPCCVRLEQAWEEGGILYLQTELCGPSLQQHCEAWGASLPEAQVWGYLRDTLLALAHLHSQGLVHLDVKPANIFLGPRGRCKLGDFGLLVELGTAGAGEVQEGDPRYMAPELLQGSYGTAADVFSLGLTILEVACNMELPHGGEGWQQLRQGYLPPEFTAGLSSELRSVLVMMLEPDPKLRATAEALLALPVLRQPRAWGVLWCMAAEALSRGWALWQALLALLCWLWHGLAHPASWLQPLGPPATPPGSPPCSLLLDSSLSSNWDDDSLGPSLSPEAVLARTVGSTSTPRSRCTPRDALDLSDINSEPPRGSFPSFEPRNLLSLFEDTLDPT
The experiment in a line: Myt1 kinase binding assay (LanthaScreen Eu Kinase Binding Assay). The method, boiled down: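 The binding affinity of compounds for Myt1 kinase was measured with a LanthaScreen Europium (Eu) Kinase Binding Assay, a time-resolved FRET format in which test compounds compete against a labeled kinase tracer, and the results were expressed as IC50 values describing compound binding to Myt1.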

Setting [4] is: 30 nM tracer 178, 5 nM Wee1A kinase, 2 nM Eu-labeled antibody, 60 minutes at room temperature, read-out: Wee1A kinase Binding IC50.
Where [5] appears, read: 4 h treatment, nuclear positivity for pCdk1 Y15 vs DMSO control, read-out: CDK1 Tyr15 Phosphorylation EC50.
Setting [6] is: 3 nM tracer 178, 2.5 nM PMYT-1, 1 nM Eu-labeled antibody, read-out: Myt1 kinase Binding IC50.

SMILES strings stand for the structures. Like-named read-outs stand apart in the source and are kept apart here.

T1 sequence (P30291 whole entry): as the sequence (P30291 whole entry) above

As usually defined, the IC50 is the midpoint of a concentration-inhibition curve. In general, EC50 refers to the concentration giving half of the maximal effect. On to `CCn1c(=O)c2cnc(Nc3ccccc3)nc2n1-c1cccc(OC2CCN(C)CC2)n1` [Compound 117, 6-anilino-2-ethyl-1-[6-(1-methyl-4-piperidyloxy)-2-pyridyl]-1,2-dihydro-3H-1,2,5,7-tetraazainden-3-one], for which the IC50 in assay [1] (setting [4]) is below 10 nM; in assay [3] (setting [6]), 20 to 100 nM. Further, the concentration for a half-maximal effect (EC50) in assay [2] (setting [5]) was below 100 nM.

In the case of `C=CCn1c(=O)c2cnc(Nc3ccc4c(cnn4C)c3)nc2n1-c1cccc(N[C@@H]2CCN(C(C)C)C2)n1` [Compound 120, 6-[(1-methyl-1H-indazol-5-yl)amino]-2-(prop-2-en-1-yl)-1-(6-{[(3R)-1-(propan-2-yl)pyrrolidin-3-yl]amino}pyridin-2-yl)-1H,2H,3H-pyrazolo[3,4-d]pyrimidin-3-one], the IC50 in assay [1] (setting [4]) is below 10 nM; in assay [3] (setting [6]), 100 to 500 nM. Further, the EC50 in assay [2] (setting [5]) is below 100 nM.

Take `C=CCn1c(=O)c2cnc(Nc3ccc4c(cnn4C)c3)nc2n1-c1cccc(NC2CCNCC2)n1` [Compound 122, 6-[(1-methyl-1H-indazol-5-yl)amino]-1-{6-[(piperidin-4-yl)amino]pyridin-2-yl}-2-(prop-2-en-1-yl)-1H,2H,3H-pyrazolo[3,4-d]pyrimidin-3-one]: the values for the IC50 in assay [1] (setting [4]) and in assay [3] (setting [6]) were below 10 nM and 100 to 500 nM, respectively. Moreover, the EC50 in assay [2] (setting [5]) was 500 to 1000 nM.

Consider `C=CCn1c(=O)c2cnc(Nc3ccccc3)nc2n1-c1cccc(NC2CCNCC2)n1` [Compound 123, 6-(phenylamino)-1-{6-[(piperidin-4-yl)amino]pyridin-2-yl}-2-(prop-2-en-1-yl)-1H,2H,3H-pyrazolo[3,4-d]pyrimidin-3-one], for which the IC50 in assay [1] (setting [4]) is below 10 nM; in assay [3] (setting [6]) it was 100 to 500 nM. The EC50 in assay [2] (setting [5]) is 500 to 1000 nM.

Take `C=CCn1c(=O)c2cnc(Nc3ccc(Cl)cc3)nc2n1-c1cccc(NC2CCNCC2)n1` [Compound 124, 2-allyl-6-((4-chlorophenyl)amino)-1-(6-(piperidin-4-ylamino)pyridin-2-yl)-1,2-dihydro-3H-pyrazolo[3,4-d]pyrimidin-3-one]: the results for the half-inhibitory concentration (IC50) in assay [1] (setting [4]) and in assay [3] (setting [6]) were below 10 nM and 20 to 100 nM, respectively. Moreover, the EC50 in assay [2] (setting [5]) lay in the range of 500 to 1000 nM.

Take `C=CCn1c(=O)c2cnc(Nc3ccc(F)cc3)nc2n1-c1cccc(NC2CCNCC2)n1` [Compound 125, 6-[(4-fluorophenyl)amino]-1-{6-[(piperidin-4-yl)amino]pyridin-2-yl}-2-(prop-2-en-1-yl)-1H,2H,3H-pyrazolo[3,4-d]pyrimidin-3-one]: the IC50 in assay [1] (setting [4]) is below 10 nM; in assay [3] (setting [6]), 100 to 500 nM. Moreover, the EC50 in assay [2] (setting [5]) was in the range of 500 to 1000 nM.

For `C=CCn1c(=O)c2cnc(Nc3cccc(C)c3)nc2n1-c1cccc(NC2CCNCC2)n1` [Compound 126, 2-allyl-1-[6-(4-piperidylamino)-2-pyridyl]-6-m-toluidino-1,2-dihydro-3H-1,2,5,7-tetraazainden-3-one], the half-maximal inhibitory concentration (IC50) in assay [1] (setting [4]) is below 10 nM; in assay [3] (setting [6]) it was above 500 nM. Moreover, the EC50 in assay [2] (setting [5]) lay in the range of 100 to 500 nM.

For the compound `C=CCn1c(=O)c2cnc(Nc3ccc(F)c(C)c3)nc2n1-c1cccc(NC2CCNCC2)n1` [Compound 128, 2-allyl-6-(4-fluoro-3-toluidino)-1-[6-(4-piperidylamino)-2-pyridyl]-1,2-dihydro-3H-1,2,5,7-tetraazainden-3-one], the values for the IC50 in assay [1] (setting [4]) and in assay [3] (setting [6]) were below 10 nM and 100 to 500 nM, respectively. The EC50 in assay [2] (setting [5]) was 100 to 500 nM.

Consider `C=CCn1c(=O)c2cnc(Nc3ccc(OCC(F)(F)F)cc3)nc2n1-c1cccc(NC2CCNCC2)n1` [Compound 130, 2-allyl-1-[6-(4-piperidylamino)-2-pyridyl]-6-[p-(2,2,2-trifluoroethoxy)phenylamino]-1,2-dihydro-3H-1,2,5,7-tetraazainden-3-one], for which the IC50 is below 10 nM in assay [1] (setting [4]) and 20 to 100 nM in assay [3] (setting [6]). Also, in assay [2] (setting [5]), the EC50 was 500 to 1000 nM.

Consider `C=CCn1c(=O)c2cnc(Nc3ccc(C(F)(F)F)cc3)nc2n1-c1cccc(NC2CCNCC2)n1` [Compound 131, 2-allyl-1-[6-(4-piperidylamino)-2-pyridyl]-6-[p-(trifluoromethyl)phenylamino]-1,2-dihydro-3H-1,2,5,7-tetraazainden-3-one], for which the IC50 is below 10 nM in assay [1] (setting [4]) and 100 to 500 nM in assay [3] (setting [6]). Further, in assay [2] (setting [5]), the EC50 lay in the range of 500 to 1000 nM.

Take `CCn1c(=O)c2cnc(Nc3cnn(C)c3)nc2n1-c1cccc(OC2CCN(C)CC2)n1` [Compound 132, 2-ethyl-1-[6-(1-methyl-4-piperidyloxy)-2-pyridyl]-6-(1-methyl-4-pyrazolylamino)-1,2-dihydro-3H-1,2,5,7-tetraazainden-3-one]: the IC50 in assay [1] (setting [4]) is below 10 nM; in assay [3] (setting [6]) it was 100 to 500 nM. The EC50 in assay [2] (setting [5]) lay in the range of 100 to 500 nM.

Turning to `C=CCn1c(=O)c2cnc(Nc3ccc(Cl)c(C)c3)nc2n1-c1cccc(NC2CCNCC2)n1` [Compound 133, 2-allyl-6-(4-chloro-3-toluidino)-1-[6-(4-piperidylamino)-2-pyridyl]-1,2-dihydro-3H-1,2,5,7-tetraazainden-3-one], the IC50 in assay [1] (setting [4]) is below 10 nM; in assay [3] (setting [6]) it was 100 to 500 nM. For the same compound, in assay [2] (setting [5]), the EC50 lay within 100 to 500 nM.

For the compound `C=CCn1c(=O)c2cnc(Nc3ccc(C#N)c(C)c3)nc2n1-c1cccc(NC2CCNCC2)n1` [Compound 134, 2-methyl-4-[(3-oxo-1-{6-[(piperidin-4-yl)amino]pyridin-2-yl}-2-(prop-2-en-1-yl)-1H,2H,3H-pyrazolo[3,4-d]pyrimidin-6-yl)amino]benzonitrile], the IC50 is below 10 nM in assay [1] (setting [4]) and 100 to 500 nM in assay [3] (setting [6]). In assay [2] (setting [5]), the EC50 is above 1000 nM.

As to `C=CCn1c(=O)c2cnc(Nc3ccc(OC(F)(F)F)cc3)nc2n1-c1cccc(NC2CCNCC2)n1` [Compound 135, 1-{6-[(piperidin-4-yl)amino]pyridin-2-yl}-2-(prop-2-en-1-yl)-6-{[4-(trifluoromethoxy)phenyl]amino}-1H,2H,3H-pyrazolo[3,4-d]pyrimidin-3-one], the IC50 in assay [1] (setting [4]) is below 10 nM; in assay [3] (setting [6]), 100 to 500 nM. The concentration for a half-maximal effect (EC50) in assay [2] (setting [5]) lay in the range of 500 to 1000 nM.

On to `C=CCn1c(=O)c2cnc(Nc3ccc(OC(F)(F)F)c(C)c3)nc2n1-c1cccc(NC2CCNCC2)n1` [Compound 136, 6-{[3-methyl-4-(trifluoromethoxy)phenyl]amino}-1-{6-[(piperidin-4-yl)amino]pyridin-2-yl}-2-(prop-2-en-1-yl)-1H,2H,3H-pyrazolo[3,4-d]pyrimidin-3-one], for which the IC50 in assay [1] (setting [4]) is below 10 nM; in assay [3] (setting [6]), 100 to 500 nM. For the same compound, the EC50 in assay [2] (setting [5]) fell in the range of 100 to 500 nM.

In the case of `C=CCn1c(=O)c2cnc(Nc3ccc(Br)cc3)nc2n1-c1cccc(NC2CCNCC2)n1` [Compound 143, 6-[(4-bromophenyl)amino]-1-{6-[(piperidin-4-yl)amino]pyridin-2-yl}-2-(prop-2-en-1-yl)-1H,2H,3H-pyrazolo[3,4-d]pyrimidin-3-one], the IC50 in assay [1] (setting [4]) is below 10 nM; in assay [3] (setting [6]), 20 to 100 nM. The EC50 in assay [2] (setting [5]) lay in the range of 500 to 1000 nM.

Turning to `C=CCn1c(=O)c2cnc(Nc3cc(Cl)cc(Br)c3)nc2n1-c1cccc(NC2CCNCC2)n1` [Compound 144, 6-[(3-bromo-5-chlorophenyl)amino]-1-{6-[(piperidin-4-yl)amino]pyridin-2-yl}-2-(prop-2-en-1-yl)-1H,2H,3H-pyrazolo[3,4-d]pyrimidin-3-one], the values for the IC50 in assay [1] (setting [4]) and in assay [3] (setting [6]) were below 10 nM and above 500 nM, respectively. The EC50 in assay [2] (setting [5]) is 500 to 1000 nM.

In the case of `C=CCn1c(=O)c2cnc(Nc3ccc(Cl)c(Cl)c3)nc2n1-c1cccc(NC2CCNCC2)n1` [Compound 146, 2-allyl-6-(3,4-dichlorophenylamino)-1-[6-(4-piperidylamino)-2-pyridyl]-1,2-dihydro-3H-1,2,5,7-tetraazainden-3-one], the results for the IC50 in assay [1] (setting [4]) and in assay [3] (setting [6]) were below 10 nM and 100 to 500 nM, respectively. Further, the EC50 in assay [2] (setting [5]) was above 1000 nM.

With `C=CCn1c(=O)c2cnc(Nc3ccc(Cl)cc3)nc2n1-c1cccc(N(CCC)C2CCNCC2)n1` [Compound 147], the IC50 was below 10 nM in assay [1] and above 500 nM in assay [3] (Myt1 kinase Binding IC50, 3 nM tracer 178, 2.5 nM PMYT-1, 1 nM Eu-labeled antibody). Besides, the EC50 in assay [2] (read-out: CDK1 Tyr15 Phosphorylation EC50, 4 h treatment, nuclear positivity for pCdk1 Y15 vs DMSO control) was above 1000 nM.
